Source: patent US10011629B2, “Nucleoside analogs for treatment of the flaviviridae family of viruses and cancer” (Cocrystal Pharma, Inc., priority 2015, dated 2018)
Like-named read-outs stand apart in the source and are kept apart here.

Experiments:
[1] = Assay for bone marrow cytotoxicity; assay type: cell-based, human; conditions: human, primary bone marrow mononuclear cells; organization LOBP; read-out: Bone marrow toxicity, CC50
Protocol: Primary human bone marrow mononuclear cells can be obtained commercially from Cambrex Bioscience (Walkersville, Md.). CFU-GM assays is carried out using a bilayer soft agar in the presence of 50 units/mL human recombinant granulocyte/macrophage colony-stimulating factor, while BFU-E assays used a […] matrix containing 1 unit/mL erythropoietin (see Sommadossi J P, Carlisle R. Toxicity of 3′-azido-3′-deoxythymidine and 9-(1,3-dihydroxy-2-propoxymethyl) guanine for normal human hepatopoietic progenitor cells in vitro. Antimicrob. Agents Chemother. 1987; 31: 452-454; Sommadossi, J P, Schinazi, R F, Chu, C K, and Xie, M Y. Comparison of cytotoxicity of the (−) and (+) enantiomer of 2′,3′-dideoxy-3′-thiacytidine in normal human bone marrow progenitor cells. Biochem. Pharmacol. 1992; 44:1921-1925). Each experiment can be performed in duplicate in cells from three different donors. AZT is used as a positive control. […] Statistical analysis can be performed with Student's t test for independent non-paired samples.

HepG2 cells = experiment: Lactic acid production in HepG2 cells; assay type: cell-based, human; conditions: 14-day assay
Protocol: To measure the effects of the compounds on lactic acid production, HepG2 cells from a stock culture were diluted and plated in 12-well culture plates at 2.5×10^4 cells per well. […] […] The culture medium was then filtered, and the lactic acid content in the medium was determined using a colorimetric lactic acid assay (Sigma-Aldrich). Since lactic acid product can be considered a marker for impaired mitochondrial function, elevated levels of lactic acid production detected in cells grown in the presence of test compounds would indicate a drug-induced cytotoxic effect.

[2] = test system: HCV 1b (Huh 7 Clone B cells containing HCV Replicon RNA); experiment: HCV replicon assay; assay type: cell-based; conditions: Hepatitis C virus, Huh-7, read-out: EC90 (μM or letter value) or % inhib HCV
Protocol: Huh 7 Clone B cells containing HCV Replicon RNA were seeded in a 96-well plate at 5000 cells/well, and the compounds tested at 10 μM in triplicate immediately after seeding. Following five days incubation (37° C., 5% CO2), total cellular RNA was isolated by using versaGene RNA purification kit from Gentra. Replicon RNA and an internal control (TaqMan rRNA control reagents, Applied Biosystems) were amplified in a single step multiplex Real Time RT-PCR Assay. The antiviral effectiveness of the compounds was calculated by subtracting the threshold RT-PCR cycle of the test compound from the threshold RT-PCR cycle of the no-drug control (ΔCt HCV). A ΔCt of 3.3 equals a 1-log reduction (equal to 90% less starting material) in Replicon RNA levels. The cytotoxicity of the compounds was also calculated by using the ΔCt rRNA values. 2′-C-Me-C was used as the positive control. To determine EC90 and IC50 values^2, ΔCt: values were first converted into fraction of starting material^3 and then were used to calculate the % inhibition. […]

Huh-7 cells = experiment: Cellular pharmacology in Huh7 cells (intracellular metabolites); conditions: Huh-7 cells, 50 μM, 4 hr
Protocol: Ice-cold 70% methanol was used as the extraction solvent. ddATP (10 nM) was used as the internal standard.

[3] = Cytotoxicity in HCV replicon assay (ΔCt rRNA); assay type: cell-based; conditions: human
Protocol: Huh 7 Clone B cells containing HCV Replicon RNA were seeded in a 96-well plate at 5000 cells/well, and the compounds tested at 10 μM in triplicate immediately after seeding. Following five days incubation (37° C., 5% CO2), total cellular RNA was isolated by using versaGene RNA purification kit from Gentra. Replicon RNA and an internal control (TaqMan rRNA control reagents, Applied Biosystems) were amplified in a single step multiplex Real Time RT-PCR Assay. The antiviral effectiveness of the compounds was calculated by subtracting the threshold RT-PCR cycle of the test compound from the threshold RT-PCR cycle of the no-drug control (ΔCt HCV). A ΔCt of 3.3 equals a 1-log reduction (equal to 90% less starting material) in Replicon RNA levels. The cytotoxicity of the compounds was also calculated by using the ΔCt rRNA values. 2′-C-Me-C was used as the positive control. To determine EC90 and IC50 values^2, ΔCt: values were first converted into fraction of starting material^3 and then were used to calculate the % inhibition.

[4] = test system: mitochondrial DNA (COXII gene) in HepG2 cells; experiment: Mitochondrial DNA level in HepG2 cells (real-time PCR)
Protocol: This assay was used in all studies described in this application that determine the effect of compounds on mitochondrial DNA content. In this assay, low-passage-number HepG2 cells were seeded at 5,000 cells/well in collagen-coated 96-well plates. Test compounds were added to the medium to obtain final concentrations of 0 μM, 0.1 μM, 10 μM and 100 μM. […] The mitochondrial cytochrome c oxidase subunit II (COXII) gene and the ß-actin or rRNA gene were amplified from 5 μl of the eluted nucleic acids using a multiplex Q-PCR protocol with suitable primers and probes for both target and reference amplifications. […] For exon 3 of the ß-actin gene (GenBank accession number E01094) the sense, probe, and antisense primers are 5′-[…]-3′ (SEQ ID NO. 4), 5′-6-[…]-3′ (SEQ ID NO. 5) and 5′-[…]-3′ (SEQ ID NO. 6), respectively. The primers and probes for the rRNA gene are commercially available from Applied Biosystems. […] The arithmetic formula for this approach is given by 2-ΔΔCT, where ΔΔCT is (CT for average target test sample−CT for target control)−(CT for average reference test−CT for reference control) (see Johnson M R, K Wang, J B Smith, M J Heslin, R B Diasio. Quantitation of dihydropyrimidine dehydrogenase expression by real-time reverse transcription polymerase chain reaction. Anal. Biochem. 2000; 278:175-184). A decrease in mitochondrial DNA content in cells grown in the presence of drug indicated mitochondrial toxicity.

[5] = test system: nuclear DNA (ß-actin or rRNA gene) in HepG2 cells; experiment: Nuclear DNA level in HepG2 cells (real-time PCR); assay type: cell-based, human; conditions: Homo sapiens, 336 h, HepG2 cells, 14-day assay
Protocol: This assay was used in all studies described in this application that determine the effect of compounds on mitochondrial DNA content. In this assay, low-passage-number HepG2 cells were seeded at 5,000 cells/well in collagen-coated 96-well plates. Test compounds were added to the medium to obtain final concentrations of 0 μM, 0.1 μM, 10 μM and 100 μM. […] The mitochondrial cytochrome c oxidase subunit II (COXII) gene and the ß-actin or rRNA gene were amplified from 5 μl of the eluted nucleic acids using a multiplex Q-PCR protocol with suitable primers and probes for both target and reference amplifications. […] For exon 3 of the ß-actin gene (GenBank accession number E01094) the sense, probe, and antisense primers are 5′-[…]-3′ (SEQ ID NO. 4), 5′-6-[…]-3′ (SEQ ID NO. 5) and 5′-[…]-3′ (SEQ ID NO. 6), respectively. The primers and probes for the rRNA gene are commercially available from Applied Biosystems. […] The comparative CT method uses arithmetic formulas in which the amount of target (COXII gene) is normalized to the amount of an endogenous reference (the B-actin or rRNA gene) and is relative to a calibrator (a control with no drug at day 7). The arithmetic formula for this approach is given by 2-ΔΔCT, where ΔΔCT is (CT for average target test sample−CT for target control)−(CT for average reference test−CT for reference control) (see Johnson M R, K Wang, J B Smith, M J Heslin, R B Diasio. Quantitation of dihydropyrimidine dehydrogenase expression by real-time reverse transcription polymerase chain reaction. Anal. Biochem. 2000; 278:175-184). A decrease in mitochondrial DNA content in cells grown in the presence of drug indicated mitochondrial toxicity.

[6] = target: HCV NS5B RNA polymerase GT 3a WT; experiment: NS5B enzyme assay, GT 3a WT; assay type: biochemical; conditions: NS5B enzyme GT 3a WT; average of two to three replicates ± SD
Protocol: The 21-amino-acid C-terminal truncated HCV NS5B RNA polymerase can be cloned from the HCV replicon cells, modified with a six-His-terminal tail, expressed in a prokaryotic expression vector (pQE60; Qiagen), and subsequently purified over a Talon cobalt affinity resin column (Clontech, Palo Alto, Calif.).^1 Purification can be monitored by SDS-PAGE and Western blotting. The resulting purified protein can be dialyzed overnight against 50 mM sodium phosphate (pH 8.0)-300 mM sodium chloride-0.5% Triton X-100-50% glycerol-2 mM dithiothreitol. The dialysate maintains consistent activity for more than 6 months when stored at −20° C. Protein can be quantified with the Coomassie Plus protein assay reagent (Pierce) by using a bovine serum albumin standard from the same supplier.
NS5B RNA polymerase reaction can be studied by monitoring the incorporation of ^32P-labeled UMP into the newly synthesized RNA strand by using minus IRES as the template. […] After the membrane is rinsed with water followed by rinsing with ethanol, the dots can be cut out and the radioactivity counted in a Packard liquid scintillation counter. The amount of product can be calculated on the basis of the total radioactivity in the reaction mixture. The rate of the reaction can be determined from the slope of the time course of product formation. […]

[7] = Homo sapiens, HepG2, read-out: % inhibition MitDNA

## O=c1ccn([C@@H]2O[C@H](CO)[C@@H](O)[C@@]2(F)Br)c(=O)[nH]1 [Compound 7, 2′-Deoxy-2′-Bromo-2′-Fluoro Uridine]
[1]
  CC50: > 100 µM
HepG2 cells; 10 μM
  Lactic acid Production (% of control): 85.0 ± 16.3 % of control
HepG2 cells; 50 μM
  Lactic acid Production (% of control): 69.0 ± 13.5 % of control
[2]
  EC90: > 10 µM
Huh-7 cells
  intracellular 7-DP: BLOQ
  intracellular 7-MP: BLOQ
  intracellular 7-TP: BLOQ
  intracellular 9: BLOQ
[3]
  CC50 at 5 days: > 10 µM
[4]
  Summary (mitochondrial toxicity): not toxic
[4]; [7]
  inhibition at 10 µM: < 1%
  inhibition at 50 µM: 13.5%
[4]; Homo sapiens, HepG2, read-out: IC50 MitDNA
  IC50: > 50 µM
[4]; human, 14 days
  Summary (mitochondrial toxicity): non-toxic up to 10 μM
[4]; human, 14 days, 10 μM
  MitDNA Content (% of control): 117 (98-138) % of control
[4]; human, 14 days, 50 μM
  MitDNA Content (% of control): 72 (63-83) % of control
[5]; 10 μM, read-out: % inhibition nDNA
  inhibition at 10 µM: 4.4%
[5]; 50 μM, read-out: % inhibition nDNA
  inhibition at 50 µM: < 1%
[5]; read-out: IC50 nDNA
  IC50: > 50 µM

## C[C@@]1(O)[C@H](O)[C@@H](COP(=O)(O)OP(=O)(O)OP(=O)(O)O)O[C@H]1n1ccc(=O)[nH]c1=O [2′-Me-UTP]
[6]
  EC50: 1.8 µM
